Experimental data as given in ChEMBL document CHEMBL4266042, “Total Synthesis of Norsampsones A and B, Garcinielliptones N and O, and Hyperscabrin A” (J Nat Prod, 2018).

Experiments:
Type in all cases: functional, cell-based
SNU1 = experiment: Cytotoxicity against human SNU1 cells after 3 to 5 days by CellTiter-Glo assay
KMS-11 = experiment: Cytotoxicity against human KMS11 cells after 3 to 5 days by CellTiter-Glo assay
786-0 = experiment: Cytotoxicity against human 786-O cells after 3 to 5 days by CellTiter-Glo assay
A549 = experiment: Cytotoxicity against human A549 cells after 3 to 5 days by CellTiter-Glo assay

Measured: IC50

CC(C)=CC[C@@H]1C[C@H](CC=C(C)C)C(C)(C)[C@@H](C(=O)C(C)C)C1=O
> 10 µM: all assays above

COC(=O)[C@]1(CC=C(C)C)C[C@H](CC=C(C)C)C(C)(C)[C@@H](C(=O)C(C)C)C1=O
> 10 µM: all assays above

CC(C)=CCCC(=O)[C@]1(CC=C(C)C)C[C@H](CC=C(C)C)C(C)(C)[C@@H](C(=O)c2ccccc2)C1=O
> 10 µM: all assays above

CC(C)=CC[C@@H]1C[C@H](CC=C(C)C)C(C)(C)[C@H](C(=O)C(C)C)C1=O
> 10 µM: all assays above

COC(=O)[C@]1(CC=C(C)C)C[C@H](CC=C(C)C)C(C)(C)[C@H](C(=O)C(C)C)C1=O
> 10 µM: all assays above

CC(C)=CCCC(=O)[C@]1(CC=C(C)C)C[C@H](CC=C(C)C)C(C)(C)[C@H](C(=O)c2ccccc2)C1=O
> 10 µM: all assays above

COC(=O)[C@@]1(CC=C(C)C)C[C@H](CC=C(C)C)C(C)(C)[C@H](C(=O)C(C)C)C1=O
> 10 µM: all assays above
